Laboratory results taken from EP4722212A1, “NOVEL COMPOUND FOR INHIBITING PROTEIN KINASES AND PHARMACEUTICAL COMPOSITION COMPRISING SAME” (Magicbullettherapeutics Co., Ltd., priority 2023, dated 2024).
Where two headings read alike, the source gives them in different places.

Assays:
Test in all cases: Kinase panel
Format in all cases: biochemical
[1] = biological target: NEK9 (Homo sapiens, UniProt Q8TD19); conditions: NEK9, 1 µM; read-out: residual enzyme activity
How it was run: (§1)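 Values report residual kinase activity remaining after treatment with 1 µM compound in a biochemical panel assay. Enzymes retaining 40% or less of their activity, equivalent to at least 60% inhibition, were listed.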

[2] = biological target: CLK1 (Homo sapiens, UniProt P49759); conditions: CLK1, 1 µM; read-out: residual enzyme activity
Chain of CLK1 (P49759 whole entry): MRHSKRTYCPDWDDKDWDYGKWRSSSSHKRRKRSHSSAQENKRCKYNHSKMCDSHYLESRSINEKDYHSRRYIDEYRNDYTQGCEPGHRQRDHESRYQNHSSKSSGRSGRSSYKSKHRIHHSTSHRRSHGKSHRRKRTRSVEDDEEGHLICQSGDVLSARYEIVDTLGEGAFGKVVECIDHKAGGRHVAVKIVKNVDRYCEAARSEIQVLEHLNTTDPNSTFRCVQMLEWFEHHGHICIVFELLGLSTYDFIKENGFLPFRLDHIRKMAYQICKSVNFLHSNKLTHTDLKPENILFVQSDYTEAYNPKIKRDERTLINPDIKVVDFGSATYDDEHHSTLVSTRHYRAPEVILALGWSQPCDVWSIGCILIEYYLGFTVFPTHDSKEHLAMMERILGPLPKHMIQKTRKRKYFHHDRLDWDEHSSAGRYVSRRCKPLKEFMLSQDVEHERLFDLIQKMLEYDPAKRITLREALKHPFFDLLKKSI
How it was run: as §1

[3] = biological target: MASTL (Homo sapiens, UniProt Q96GX5); conditions: read-out: residual enzyme activity
How it was run: as §1

[4] = biological target: NLK (Homo sapiens, UniProt Q9UBE8); conditions: read-out: residual enzyme activity
Chain of NLK (Q9UBE8 whole entry): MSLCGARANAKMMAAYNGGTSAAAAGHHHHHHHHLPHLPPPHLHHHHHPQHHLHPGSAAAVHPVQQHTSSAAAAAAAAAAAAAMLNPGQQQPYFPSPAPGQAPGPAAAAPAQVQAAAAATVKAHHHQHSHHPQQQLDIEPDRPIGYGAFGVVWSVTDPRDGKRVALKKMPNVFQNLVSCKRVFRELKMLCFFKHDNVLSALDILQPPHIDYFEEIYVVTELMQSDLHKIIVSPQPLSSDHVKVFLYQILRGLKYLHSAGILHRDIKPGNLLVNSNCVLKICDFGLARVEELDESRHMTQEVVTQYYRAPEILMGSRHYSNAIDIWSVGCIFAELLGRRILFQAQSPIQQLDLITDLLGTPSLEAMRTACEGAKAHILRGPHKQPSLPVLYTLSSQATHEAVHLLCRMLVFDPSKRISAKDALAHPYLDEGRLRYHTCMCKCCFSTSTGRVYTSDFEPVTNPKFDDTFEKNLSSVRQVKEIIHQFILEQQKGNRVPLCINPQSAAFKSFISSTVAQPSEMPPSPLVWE
How it was run: as §1

[5] = biological target: DDR2 (Homo sapiens, UniProt Q16832); conditions: DDR2, 1 µM; read-out: residual enzyme activity
How it was run: as §1

[6] = biological target: CDK4/CYCLIN D1 (Homo sapiens, UniProt P11802); conditions: CDK4/cyclin D1, 1 µM; read-out: residual enzyme activity
Chain of CDK4/CYCLIN D1 (P11802 whole entry, species assumed): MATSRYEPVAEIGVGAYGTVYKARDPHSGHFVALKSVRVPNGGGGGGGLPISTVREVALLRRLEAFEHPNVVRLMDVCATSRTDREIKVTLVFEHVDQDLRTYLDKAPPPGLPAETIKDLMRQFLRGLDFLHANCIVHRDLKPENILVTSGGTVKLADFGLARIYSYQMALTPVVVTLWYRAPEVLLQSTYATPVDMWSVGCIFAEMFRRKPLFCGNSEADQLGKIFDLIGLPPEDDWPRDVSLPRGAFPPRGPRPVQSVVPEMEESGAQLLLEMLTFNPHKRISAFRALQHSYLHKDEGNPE
Chain of CDK4/CYCLIN D1 (P24385 whole entry partner, species assumed): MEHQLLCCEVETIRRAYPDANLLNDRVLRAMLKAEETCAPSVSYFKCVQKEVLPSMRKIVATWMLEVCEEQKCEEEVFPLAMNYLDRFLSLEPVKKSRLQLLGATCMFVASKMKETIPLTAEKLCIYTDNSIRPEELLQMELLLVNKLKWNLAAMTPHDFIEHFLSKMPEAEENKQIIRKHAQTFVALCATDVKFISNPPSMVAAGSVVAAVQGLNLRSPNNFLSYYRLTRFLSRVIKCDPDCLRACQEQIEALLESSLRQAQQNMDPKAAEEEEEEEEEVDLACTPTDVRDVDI
How it was run: as §1

[7] = biological target: CK2A2 (Homo sapiens, UniProt P19784); conditions: read-out: residual enzyme activity
How it was run: as §1

[8] = biological target: MRCKB/CDC42BPB (Homo sapiens, UniProt Q9Y5S2); conditions: read-out: residual enzyme activity
How it was run: as §1

[9] = biological target: MYO3A (Homo sapiens, UniProt Q8NEV4); conditions: read-out: residual enzyme activity
How it was run: as §1

[10] = biological target: EPHAS (Homo sapiens, UniProt P54756); conditions: read-out: residual enzyme activity
How it was run: as §1

[11] = biological target: DCAMKL2 (Homo sapiens, UniProt Q8N568); conditions: DCAMKL2, 1 µM; read-out: residual enzyme activity
Chain of DCAMKL2 (Q8N568 whole entry, species assumed): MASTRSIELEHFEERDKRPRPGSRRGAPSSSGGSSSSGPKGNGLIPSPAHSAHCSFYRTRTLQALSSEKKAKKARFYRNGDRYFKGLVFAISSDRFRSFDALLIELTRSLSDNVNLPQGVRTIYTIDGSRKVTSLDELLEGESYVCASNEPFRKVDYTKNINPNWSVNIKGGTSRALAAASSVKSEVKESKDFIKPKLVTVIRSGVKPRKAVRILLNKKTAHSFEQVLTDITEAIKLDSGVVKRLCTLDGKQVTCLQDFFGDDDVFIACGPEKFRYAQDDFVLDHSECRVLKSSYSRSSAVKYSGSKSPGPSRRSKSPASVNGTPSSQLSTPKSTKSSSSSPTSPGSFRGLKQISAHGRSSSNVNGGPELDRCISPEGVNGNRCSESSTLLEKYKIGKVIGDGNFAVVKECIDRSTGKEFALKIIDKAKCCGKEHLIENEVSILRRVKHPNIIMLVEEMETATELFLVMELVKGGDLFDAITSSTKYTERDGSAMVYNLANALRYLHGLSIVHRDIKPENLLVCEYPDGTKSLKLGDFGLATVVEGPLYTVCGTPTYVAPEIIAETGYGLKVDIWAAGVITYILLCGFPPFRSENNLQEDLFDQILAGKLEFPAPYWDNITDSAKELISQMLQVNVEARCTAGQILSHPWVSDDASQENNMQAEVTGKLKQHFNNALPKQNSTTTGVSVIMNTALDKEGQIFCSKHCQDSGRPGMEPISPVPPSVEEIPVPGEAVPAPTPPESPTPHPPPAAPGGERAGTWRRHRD
How it was run: as §1

[12] = biological target: CAMKIG (Homo sapiens, UniProt Q96NX5); conditions: read-out: residual enzyme activity
How it was run: as §1

[13] = biological target: TESK1 (Homo sapiens, UniProt Q15569); conditions: TESK1, 1 µM; read-out: residual enzyme activity
How it was run: as §1

[14] = biological target: CDK1/CYCLIN A (Homo sapiens, UniProt P06493); conditions: read-out: residual enzyme activity
How it was run: as §1

[15] = biological target: TYK1/LTK (Homo sapiens, UniProt P29376); conditions: read-out: residual enzyme activity
How it was run: as §1

[16] = biological target: MAK (Homo sapiens, UniProt P20794); conditions: read-out: residual enzyme activity
How it was run: as §1

[17] = biological target: ALK6/BMPR1B (Homo sapiens, UniProt O00238); conditions: read-out: residual enzyme activity
How it was run: as §1

[18] = biological target: CAMK2A (Homo sapiens, UniProt Q9UQM7); conditions: read-out: residual enzyme activity
How it was run: as §1

[19] = biological target: DDR1 (Homo sapiens, UniProt Q08345); conditions: DDR1, 1 µM; read-out: residual enzyme activity
How it was run: as §1

[20] = biological target: ERBB4/HER4 (Homo sapiens, UniProt Q15303); conditions: ERBB4/HER4, 1 µM; read-out: residual enzyme activity
Chain of ERBB4/HER4 (Q15303 26-1308): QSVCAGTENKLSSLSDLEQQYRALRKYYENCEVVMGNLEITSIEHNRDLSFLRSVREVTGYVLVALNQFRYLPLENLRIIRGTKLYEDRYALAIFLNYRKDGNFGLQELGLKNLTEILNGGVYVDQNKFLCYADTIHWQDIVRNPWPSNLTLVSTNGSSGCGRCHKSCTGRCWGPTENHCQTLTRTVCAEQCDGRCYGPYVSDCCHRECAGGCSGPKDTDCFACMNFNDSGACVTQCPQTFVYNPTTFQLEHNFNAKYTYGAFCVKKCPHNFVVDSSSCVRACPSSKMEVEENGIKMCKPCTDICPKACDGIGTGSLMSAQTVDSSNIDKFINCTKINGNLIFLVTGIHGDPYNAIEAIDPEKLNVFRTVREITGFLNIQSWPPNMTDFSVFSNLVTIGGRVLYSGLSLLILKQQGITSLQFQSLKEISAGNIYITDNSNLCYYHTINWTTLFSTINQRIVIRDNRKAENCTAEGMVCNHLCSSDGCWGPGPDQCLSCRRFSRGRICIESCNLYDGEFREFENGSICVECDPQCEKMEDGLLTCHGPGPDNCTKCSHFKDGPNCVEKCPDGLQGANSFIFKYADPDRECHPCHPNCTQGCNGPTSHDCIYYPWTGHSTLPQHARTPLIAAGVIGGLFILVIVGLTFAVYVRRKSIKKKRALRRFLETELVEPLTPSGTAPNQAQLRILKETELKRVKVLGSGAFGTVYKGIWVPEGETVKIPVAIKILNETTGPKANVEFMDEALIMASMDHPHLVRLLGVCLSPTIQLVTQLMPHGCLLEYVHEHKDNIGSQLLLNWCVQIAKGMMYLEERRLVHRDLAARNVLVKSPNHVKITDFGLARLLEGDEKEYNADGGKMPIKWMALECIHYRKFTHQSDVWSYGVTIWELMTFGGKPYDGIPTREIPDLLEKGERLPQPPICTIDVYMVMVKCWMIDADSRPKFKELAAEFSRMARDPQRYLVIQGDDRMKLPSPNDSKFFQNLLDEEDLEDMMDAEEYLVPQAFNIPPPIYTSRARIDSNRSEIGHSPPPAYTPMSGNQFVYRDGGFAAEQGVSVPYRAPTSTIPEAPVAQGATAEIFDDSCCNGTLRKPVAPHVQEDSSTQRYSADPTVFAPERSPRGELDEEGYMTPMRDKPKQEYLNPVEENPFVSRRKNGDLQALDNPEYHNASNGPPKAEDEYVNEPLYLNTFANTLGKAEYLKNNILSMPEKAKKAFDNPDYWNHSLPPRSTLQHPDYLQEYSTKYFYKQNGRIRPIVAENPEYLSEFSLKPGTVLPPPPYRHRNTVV
How it was run: as §1

[21] = biological target: AKT3 (Homo sapiens, UniProt Q9Y243); conditions: AKT3, 1 µM; read-out: residual enzyme activity
How it was run: as §1

[22] = biological target: MSSK1/STK23 (Homo sapiens, UniProt Q9UPE1); conditions: MSSK1/STK23, 1 µM; read-out: residual enzyme activity
How it was run: as §1

[23] = biological target: GLK/MAP4K3 (Homo sapiens, UniProt Q8IVH8); conditions: GLK/MAP4K3, 1 µM; read-out: residual enzyme activity
How it was run: as §1

[24] = tested on: ARAF; conditions: 1 µM
How it was run: as §1

[25] = biological target: FER (Homo sapiens, UniProt P16591); conditions: read-out: residual enzyme activity
How it was run: as §1

[26] = biological target: P70S6KB/RPS6KB2 (Homo sapiens, UniProt Q9UBS0); conditions: read-out: residual enzyme activity
How it was run: as §1

[27] = biological target: TTBK2 (Homo sapiens, UniProt Q6IQ55); conditions: TTBK2, 1 µM; read-out: residual enzyme activity
Chain of TTBK2 (Q6IQ55 whole entry, species assumed): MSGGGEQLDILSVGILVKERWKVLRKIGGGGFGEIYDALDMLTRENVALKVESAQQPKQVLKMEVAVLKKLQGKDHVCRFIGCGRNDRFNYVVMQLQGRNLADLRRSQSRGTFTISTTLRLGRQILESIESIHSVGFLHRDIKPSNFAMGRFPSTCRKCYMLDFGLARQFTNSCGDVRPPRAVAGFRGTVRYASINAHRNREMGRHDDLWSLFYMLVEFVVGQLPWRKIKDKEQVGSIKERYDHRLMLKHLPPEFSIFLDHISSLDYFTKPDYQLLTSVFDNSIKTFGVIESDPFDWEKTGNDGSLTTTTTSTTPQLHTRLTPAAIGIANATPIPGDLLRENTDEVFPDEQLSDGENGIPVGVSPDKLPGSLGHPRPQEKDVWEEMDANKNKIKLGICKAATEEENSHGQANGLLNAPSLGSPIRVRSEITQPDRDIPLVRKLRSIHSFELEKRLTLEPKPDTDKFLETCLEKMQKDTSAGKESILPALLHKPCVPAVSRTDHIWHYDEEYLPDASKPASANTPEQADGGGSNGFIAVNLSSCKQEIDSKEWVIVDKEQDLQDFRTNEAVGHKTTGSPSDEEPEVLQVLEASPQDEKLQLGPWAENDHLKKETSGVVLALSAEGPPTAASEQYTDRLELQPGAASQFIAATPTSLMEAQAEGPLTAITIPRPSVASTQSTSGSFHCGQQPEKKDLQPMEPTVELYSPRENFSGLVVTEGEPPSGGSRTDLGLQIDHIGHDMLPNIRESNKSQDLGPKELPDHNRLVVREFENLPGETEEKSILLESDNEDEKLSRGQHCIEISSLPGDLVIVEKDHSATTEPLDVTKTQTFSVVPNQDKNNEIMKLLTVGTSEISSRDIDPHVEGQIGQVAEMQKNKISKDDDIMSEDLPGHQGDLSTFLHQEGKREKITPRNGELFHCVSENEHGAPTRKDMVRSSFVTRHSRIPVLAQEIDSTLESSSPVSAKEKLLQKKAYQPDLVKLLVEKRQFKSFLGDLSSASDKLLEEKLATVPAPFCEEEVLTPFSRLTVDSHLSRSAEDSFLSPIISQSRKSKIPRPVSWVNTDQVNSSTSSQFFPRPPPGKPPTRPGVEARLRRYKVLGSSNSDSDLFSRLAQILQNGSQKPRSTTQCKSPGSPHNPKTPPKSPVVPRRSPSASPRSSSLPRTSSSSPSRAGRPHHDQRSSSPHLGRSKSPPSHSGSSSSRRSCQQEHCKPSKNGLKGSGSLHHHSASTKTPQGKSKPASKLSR
How it was run: as §1

[28] = biological target: GSK3B (Homo sapiens, UniProt P49841); conditions: read-out: residual enzyme activity
How it was run: as §1

[29] = biological target: CDK7/CYCLIN H (Homo sapiens, UniProt P50613); conditions: read-out: residual enzyme activity
How it was run: as §1

[30] = biological target: JAK3 (Homo sapiens, UniProt P52333); conditions: JAK3, 1 µM; read-out: residual enzyme activity
How it was run: as §1

[31] = biological target: PAK4 (Homo sapiens, UniProt O96013); conditions: PAK4, 1 µM; read-out: residual enzyme activity
How it was run: as §1

[32] = biological target: PKCB1 (Homo sapiens, UniProt P05771); conditions: read-out: residual enzyme activity
How it was run: as §1

[33] = biological target: MUSK (Homo sapiens, UniProt O15146); conditions: read-out: residual enzyme activity
How it was run: as §1

[34] = biological target: HGK/MAP4K4 (Homo sapiens, UniProt O95819); conditions: HGK/MAP4K4, 1 µM; read-out: residual enzyme activity
How it was run: as §1

Row | SMILES | remaining activity at 1 µM [1] [%] | remaining activity at 1 µM [2] [%] | remaining activity at 1 µM [3] [%] | remaining activity at 1 µM [4] [%] | remaining activity at 1 µM [5] [%] | remaining activity at 1 µM [6] [%] | remaining activity at 1 µM [8] [%] | remaining activity at 1 µM [9] [%] | remaining activity at 1 µM [11] [%] | remaining activity at 1 µM [13] [%] | remaining activity at 1 µM [14] [%] | remaining activity at 1 µM [15] [%] | remaining activity at 1 µM [16] [%] | remaining activity at 1 µM [17] [%] | remaining activity at 1 µM [19] [%] | remaining activity at 1 µM [20] [%] | remaining activity at 1 µM [21] [%] | remaining activity at 1 µM [22] [%] | remaining activity at 1 µM [23] [%] | residual enzyme activity [24] | further results
1 | Cc1cn(-c2cc(C(=O)Nc3ccc(C)c(N4Cc5cnc(NC6CC6)nc5C5(CC5)C4=O)c3)cc(C(F)(F)F)c2)cn1 [Compound 8, N-(3-(2'-(cyclopropylamino)-7'-oxo-5'H-spiro[cyclopropane-1,8'-pyrido[4,3-d]pyrimidine]-6'(7'H)-yl)-4-methylphenyl)-3-(4-methyl-1H-imidazol-1-yl)-5-(trifluoromethyl)benzamide] | > 40 | > 40 | > 40 | > 40 | ≤ 40 | > 40 | > 40 | > 40 | > 40 | ≤ 40 | > 40 | ≤ 40 | > 40 | > 40 | ≤ 40 | ≤ 40 | > 40 | > 40 | ≤ 40 | O (residual enzyme activity values were 40% or less, i.e., inhibited by 60% or more) | remaining activity at 1 µM ([7]; CK2A2, 1 µM): > 40%; remaining activity at 1 µM ([10]; EPHAS (row 107), 1 µM): ≤ 40%; remaining activity at 1 µM ([12]; CAMKIG): > 40%; remaining activity at 1 µM ([18]; CAMK2A): > 40%; remaining activity at 1 µM [25]: ≤ 40%; remaining activity at 1 µM ([26]; P70S6KB/RPS6KB2, 1 µM): > 40%; remaining activity at 1 µM [27]: > 40%; remaining activity at 1 µM ([28]; GSK3B): > 40%; remaining activity at 1 µM [29]: > 40%; remaining activity at 1 µM [30]: ≤ 40%; remaining activity at 1 µM [31]: > 40%; remaining activity at 1 µM ([32]; PKCB1, 1 µM): > 40%; remaining activity at 1 µM [33]: ≤ 40%; remaining activity at 1 µM [34]: ≤ 40%
2 | Cc1ccc(Nc2ncc3c(n2)C2(CC2)C(=O)N(c2cc(NC(=O)c4cccc(C(F)(F)F)c4)ccc2C)C3)cn1 [Compound 51, N-(4-methyl-3-(2'-((6-methylpyridin-3-yl)amino)-7'-oxo-5'H-spiro[cyclopropane-1,8'-pyrido[4,3-d]pyrimidine]-6'(7'H)-yl)phenyl)-3-(trifluoromethyl)benzamide] | > 40 | > 40 | > 40 | > 40 | ≤ 40 | > 40 | > 40 | > 40 | > 40 | ≤ 40 | > 40 | > 40 | > 40 | > 40 | ≤ 40 | ≤ 40 | > 40 | > 40 | ≤ 40 | O (residual enzyme activity values were 40% or less, i.e., inhibited by 60% or more) | remaining activity at 1 µM ([7]; CK2a2, 1 µM): > 40%; remaining activity at 1 µM ([10]; EPHA5, 1 µM): ≤ 40%; remaining activity at 1 µM ([12]; CAMK1g): > 40%; remaining activity at 1 µM ([18]; CAMK2a): > 40%; remaining activity at 1 µM [25]: ≤ 40%; remaining activity at 1 µM ([26]; p70S6Kb/RPS6KB2, 1 µM): > 40%; remaining activity at 1 µM [27]: > 40%; remaining activity at 1 µM ([28]; GSK3b): > 40%; remaining activity at 1 µM [29]: > 40%; remaining activity at 1 µM [30]: ≤ 40%; remaining activity at 1 µM [31]: > 40%; remaining activity at 1 µM ([32]; PKCbl, 1 µM): > 40%; remaining activity at 1 µM [33]: ≤ 40%; remaining activity at 1 µM [34]: ≤ 40%
